Measured values taken from patent US20050209278A1, “Piperidinyl- and piperazinyl-sulfonylmethyl hydroxamic acids and their use as protease inhibitors” (priority 2002, published 2005).

Biological target: T1, MMP-13 (Homo sapiens, UniProt P45452)
T1 construct: made in house; host or cells: baculovirus / insect cells
Assay: In vitro MMP inhibition, Ki determination (fluorogenic substrate II)
Format: biochemical
Conditions: value not in parenthesis; read-out: MMP-13 Ki
In short: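 Ki determined with human recombinant MMP-13, baculovirus-expressed as proenzyme and activated with APMA. Fluorogenic MCA/Dpa substrate II at 4 μM (at or below Km) with low enzyme in Tris buffer pH 7.5 with CaCl2. Incubation was 1 h at room temperature, with fluorescence read at 330/420 nm.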

Ki [nM] | Compound
0.43 | CCN1CCC(C(=O)NO)(S(=O)(=O)N2CCN(c3ccc(OCCCC(F)(F)F)cc3)CC2)CC1 [Example 78]
0.261 | O=C(NO)C1(S(=O)(=O)N2CCN(c3ccc(OCCCC(F)(F)F)cc3F)CC2)CCOCC1 [Example 81]
21.9 | CCCCOc1ccc(N2CCN(S(=O)(=O)C3(C(=O)NO)CCN(C(=O)OCC(C)(C)C)CC3)CC2)cc1 [Example 97]
0.82 | O=C(NO)C1(S(=O)(=O)N2CCN(c3ccc(C(F)(F)F)cn3)CC2)CCOCC1 [Example 94]
0.79 | O=C(NO)C1(S(=O)(=O)N2CCN(c3ccc(COCC(F)(F)C(F)F)cc3)CC2)CCOCC1 [Example 71]
0.06 | CCCCOc1ccc(N2CCN(S(=O)(=O)C3(C(=O)NO)CCOCC3)CC2)nc1 [Example 100]
9.78 | O=C(NO)C1(S(=O)(=O)N2CCN(c3ccc(OC4CCC4)c(F)c3)CC2)CCOCC1 [Example 73]
26 | CCCCOc1ccc(N2CCN(S(=O)(=O)C3(C(=O)NO)CCN(c4nc5ccccc5s4)CC3)CC2)cc1 [Example 93]

Same assay, conditions: value outside parentheses; read-out: MMP-13 Ki

Compound | Ki [nM]
O=C(NO)C1(S(=O)(=O)N2CCC(c3ccc(Br)cn3)CC2)CCOCC1 [Example 306] | 0.863
O=C(NO)C1(S(=O)(=O)N2CCN(c3ccc(SC(F)(F)F)cc3)CC2)CCS(=O)(=O)CC1 [Example 258] | 30.5
COCCOc1ccc(N2CCN(S(=O)(=O)C3(C(=O)NO)CCN(C4CC4)CC3)CC2)cc1F [Example 297] | 1.4
CCCCOc1ccc(N2CCN(S(=O)(=O)C3(C(=O)NO)CCN(C(=O)CN)CC3)CC2)cc1 [Example 292] | 0.98
CCCCOc1ccc(N2CCN(S(=O)(=O)C3(C(=O)NO)CCNCC3)CC2)cc1 [Example 276] | 2.49
Cc1cc(N2CCN(S(=O)(=O)C3(C(=O)NO)CCOCC3)CC2)ccc1OC(C)C [Example 299] | 3.04
CCCCOc1ccc(N2CCN(S(=O)(=O)C3(C(=O)NO)CCN(Cc4ccccc4)CC3)CC2)cc1F [Example 285] | 2.06
CCCCOc1ccc(N2CCN(S(=O)(=O)C3(C(=O)NO)CCN(c4ccc(C)cc4)CC3)CC2)cc1 [Example 295] | 9.13

More lines, now with the values ahead:

Ki [nM] | Compound
0.637 | CCCCOc1ccc(N2CCN(S(=O)(=O)C3(C(=O)NO)CCN(C(=O)CC(F)(F)F)CC3)CC2)cc1 [Example 265]
0.49 | CCCCOc1ccc(N2CCN(S(=O)(=O)C3(C(=O)NO)CCN(C(=O)CCCC)CC3)CC2)cc1 [Example 278]
0.452 | CCCCOc1ccc(N2CCN(S(=O)(=O)C3(C(=O)NO)CCN(C(=O)CO)CC3)CC2)cc1 [Example 271]
0.442 | CCCCOc1ccc(N2CCN(S(=O)(=O)C3(C(=O)NO)CCN(c4ccc(Cl)nn4)CC3)CC2)cc1 [Example 281]
0.373 | CCCCOc1ccc(N2CCN(S(=O)(=O)C3(C(=O)NO)CCN(Cc4ccco4)CC3)CC2)cc1 [Example 252]
0.357 | CCCCOc1ccc(N2CCN(S(=O)(=O)C3(C(=O)NO)CCN(C(N)=O)CC3)CC2)cc1 [Example 253]
0.301 | CCCCOc1ccc(N2CCN(S(=O)(=O)C3(C(=O)NO)CCN(C(=O)C4CC4)CC3)CC2)cc1 [Example 260]
0.27 | CCCCOc1ccc(N2CCN(S(=O)(=O)C3(C(=O)NO)CCN(C(C)=O)CC3)CC2)cc1 [Example 282]
0.262 | CCc1ccc(N2CCN(S(=O)(=O)C3(C(=O)NO)CCCCC3)CC2)nc1 [Example 263]
0.23 | CCCCOc1ccc(N2CCN(S(=O)(=O)C3(C(=O)NO)CCN(C(=O)c4ccccn4)CC3)CC2)cc1 [Example 277]
0.216 | CCCCOc1ccc(N2CCN(S(=O)(=O)C3(C(=O)NO)CCN(c4ccc(C)nn4)CC3)CC2)cc1 [Example 275]
0.2 | COCCN1CCC(C(=O)NO)(S(=O)(=O)N2CCC(c3ccc(CCC(F)(F)C(F)(F)F)cc3)CC2)CC1 [Example 312]
0.136 | CCCCCc1ccc(C2CCN(S(=O)(=O)C3(C(=O)NO)CCOCC3)CC2)nc1 [Example 305]
0.1 | CCCCOc1ccc(N2CCN(S(=O)(=O)C3(C(=O)NO)CCN(C(=O)N(C)C)CC3)CC2)cc1 [Example 254]
